Test results as given in patent US9260481B2, “Peptide derivatives as antibiotics” (priority 2011, dated 2016).
Values after ≈ are worked out from the molar mass of the structure shown. Read-outs that look alike come from different tables or passages of the source. Numbered stars: 1 amine (or outer) side, 2 acyl side, 3 side chain; on linkers, the order of the positions; unused ones are H or OH. Square brackets hold non-standard residues; d marks the D form. Peptide text beside a SMILES is read from it. * marks the point of attachment. ξ: configuration not given here. X1 = NCC(O)CCC(N[*:1])C(=O)[*:2]; ΔZArg = N=C(N)NCC/C=C(\N)C(=O)O; ξDab(3-OH) = NCC(O)C(N)C(=O)O; Orn = NCCC[CH](N)C(=O)O; NH(CH2)4NH2 = NCCCCN*

Key:
[1] = tested on: S. aureus ATCC 13709; type: cell-based, Staphylococcus aureus; conditions: ATCC 13709, 24 h
Description: (§1) Minimal bactericidal concentrations (MBCs) were established by extending the MIC procedure to the evaluation of bactericidal activity. After 24 hours, 10 μL were drawn from the wells, serially diluted and then spotted onto suitable agar plates. The plates were incubated at 37° C. overnight. […] All the experiments were done in triplicate.

[2] = Cytotoxicity test (MTS); type: cell-based; conditions: human; for CC50 at 72 h: MTS; for viability at 72 h: dose of up to 100 μg/mL, read-out: cell viability
Description: The cytotoxicity of the Odilomycins A-C was investigated against Human colon adenocarcinoma (HT29) cells and Human normal lung fibroblasts (MRC-5) cells. 200 μL of the cell suspension of HT29 (human colorectal adenocarcinoma) prepared in RPMI 1640+1% L-Glutamine supplemented with 10% (v/v) fetal calf serum and 200 μL of the cell suspension of MRC5 (human lung fibroblast) prepared in Dulbecco's modified Eagle's medium supplemented with 25 mM glucose and 10% (v/v) fetal calf serum were inoculated into 96-well plates.
The inoculating cell number was 800 cells per well for HT29 and 2100 cells per well for MRC-5. The microplates were incubated at 37° C. for 24 h with 5% of CO2.
Twenty four hours later, Odilomycin A, B or C dissolved in water were added for 72 h at a final concentration from 0.78 μg/mL to 100 μg/mL in a fixed volume of water (1% final concentration). […] Experiments were done in triplicate.

[3] = tested on: P. aeruginosa ATCC 27853; type: cell-based, Pseudomonas aeruginosa; conditions: ATCC 27853, 24 h
Description: as §1

[4] = tested on: Pseudomonas aeruginosa
Description: (§2) The minimal inhibitory concentrations (MIC) were determined according to the Clinical and Laboratory Standards Institute (CLSI) conditions guidelines detailed in Table 7. Assays were performed in triplicate.
(§3) Preparation of Inocula. Five to 10 well-isolated colonies were picked and resuspended in 3 ml sterile saline. The inoculum was re-suspended by vigorous shaking on a vortex mixer for 15 s. Turbidity was adjusted to McFarland standard 0.5 ([…]). The inoculum was further diluted in the appropriate media (Table 7) to give a final inoculum in each well of ˜2-8×10^5 CFU/ml.
(§4) Addition of Test Article. Stock solutions of Odilomycin A or comparator were diluted in the appropriate media to give a maximum starting concentration of 50 μg/mL in the assay. 50 μL of medium was dispensed into each well in columns two to 12 of a 96 well plate. 100 μL of the appropriate test compound solution (100 μg/mL) was dispensed into each well in column one. In the case of M. catarrhalis, M. haemolytica and P. multocida these values were doubled (a final assay volume of 200 μL was used). […] Columns 11 and 12 served as positive (no drug or test article, inoculum added), and negative (no drug, test article, or inoculum added) growth controls respectively.
(§5) Addition of Bacterial Strains. 50 μL of each inoculum suspension was added to the appropriate wells, resulting in a final volume of 100 μL consisting of 50 μL diluted compound or diluents, and 50 μL of inoculum or broth alone.

[5] = tested on: Bacteroides fragilis; assay: microbe, parasite or virus in culture; conditions: Bacteroides fragilis, ATCC25238
Description: as §2, §3, §4, §5

[6] = HT29 colon adenocarcinoma cells
[7] = MRC-5 normal lung fibroblasts, MRC-5 cells

SMILES: N=C(N)NCC/C=C(\NC(=O)C(CCCCN)NC(=O)C(Cc1cnc[nH]1)NC(=O)C1CCCN1C(=O)C(CCCN)NC(=O)CNC(=O)C(NC(=O)C(NC(=O)C(N)CCCCN)C(O)CN)C(O)CN)C(=O)NC(CCC(O)CN)C(=O)NCCCCN (stereo not drawn) [Odilomycin B, Lys-(3-hydroxy-2,4-diaminobutanoic acid)-(3-hydroxy-2,4-diaminobutanoic acid)-Gly-Ornithine-Pro-His-Lys-(2,3-dehydroarginine)-(5-hydroxylysine)-(1,4-diaminobutane)] (H-K[ξDab(3-OH)][ξDab(3-OH)]G[Orn]PHK[ΔZArg][X1]-{NH(CH2)4NH2}; configuration not given here)
- MBC [1]: 0.78 µg/mL (≈ 0.609 µM)
- CC50 at 72 h [2, 6]: > 100 µg/mL
- viability at 72 h [2, 6]: 100%
- CC50 at 72 h [2, 7]: > 100 µg/mL
- viability at 72 h [2, 7]: 100%
- MBC [3]: 3.12 µg/mL (≈ 2.44 µM)

SMILES: N=C(N)NCC/C=C(\NC(=O)C(CCCCN)NC(=O)C(Cc1cnc[nH]1)NC(=O)C1CCCN1C(=O)C(CCCN)NC(=O)CNC(=O)C(NC(=O)C(NC(=O)C(N)CCCCN)C(O)CN)C(O)CN)C(=O)NC(CCCCN)C(=O)NCCCCN (stereo not drawn) [Odilomycin C, Lys-(3-hydroxy-2,4-diaminobutanoic acid)-(3-hydroxy-2,4-diaminobutanoic acid)-Gly-Ornithine-Pro-His-Lys-(2,3-dehydroarginine)-Lys-(1,4-diaminobutane)] (H-K[ξDab(3-OH)][ξDab(3-OH)]G[Orn]PHK[ΔZArg]K-{NH(CH2)4NH2}; configuration not given here)
- MBC [1]: 1.56 µg/mL (≈ 1.23 µM)
- CC50 at 72 h [2, 6]: > 100 µg/mL
- viability at 72 h [2, 6]: 100%
- CC50 at 72 h [2, 7]: > 100 µg/mL
- viability at 72 h [2, 7]: 100%
- MBC [3]: 12.5 µg/mL (≈ 9.88 µM)
- MIC [4]: 6.25 µg/mL (≈ 4.94 µM)

SMILES: Cc1ncc([N+](=O)[O-])n1CCO [metronidazole, reference compound]
- MIC [5]: 0.39 µg/mL (≈ 2.28 µM)
